Data published in PubChem BioAssay AID248 (DTP/NCI, 2004).
Where “and” joins values, the source holds several entries; their conditions need not be identical. Equal entries are not always repeated. Toxic doses and inconclusive results are not listed.

Test system: L1210 leukemia ip in BDF1 mice, survival T/C
Test: NCI In Vivo Anticancer Drug Screen. Data for tumor model L1210 Leukemia (intraperitoneal) in B6D2F1 (BDF1) mice
Conditions: endpoint: mean survival time, higher = longer survival
Procedure, shortened: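 Ratio derived from survival: compound-dosed mice over vehicle-dosed mice, all bearing a transplantable tumor.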

[1] = dose: 100.0 mg/kg/injection, schedule: Q04DX002 (ip), vehicle: Klucel (hydroxypropylcellulose) (HPC)
[2] = dose: 200.0 mg/kg/injection, schedule: Q04DX002 (ip), vehicle: Klucel (hydroxypropylcellulose) (HPC)
[3] = dose: 400.0 mg/kg/injection, schedule: Q04DX002 (ip), vehicle: Klucel (hydroxypropylcellulose) (HPC)
[4] = dose: 100.0 mg/kg/injection, schedule: Q01DX009 (ip), vehicle: saline with Tween-80
[5] = dose: 100.0 mg/kg/injection, schedule: Q04DX003 (ip), vehicle: saline
[6] = dose: 200.0 mg/kg/injection, schedule: Q01DX009 (ip), vehicle: saline with Tween-80
[7] = dose: 200.0 mg/kg/injection, schedule: Q04DX003 (ip), vehicle: saline
[8] = dose: 400.0 mg/kg/injection, schedule: Q04DX003 (ip), vehicle: saline
[9] = dose: 100.0 mg/kg/injection, schedule: Q01DX001 (ip), vehicle: saline with Tween-80
[10] = dose: 100.0 mg/kg/injection, schedule: Q04DX002 (ip), vehicle: saline with Tween-80
[11] = dose: 200.0 mg/kg/injection, schedule: Q01DX001 (ip), vehicle: saline with Tween-80
[12] = dose: 200.0 mg/kg/injection, schedule: Q04DX002 (ip), vehicle: saline with Tween-80
[13] = dose: 400.0 mg/kg/injection, schedule: Q01DX001 (ip), vehicle: saline with Tween-80
[14] = dose: 400.0 mg/kg/injection, schedule: Q04DX002 (ip), vehicle: saline with Tween-80
[15] = dose: 100.0 mg/kg/injection, schedule: Q01DX009 (ip), vehicle: Klucel (hydroxypropylcellulose) (HPC)
[16] = dose: 200.0 mg/kg/injection, schedule: Q01DX009 (ip), vehicle: Klucel (hydroxypropylcellulose) (HPC)
[17] = dose: 200.0 mg/kg/injection, schedule: Q04DX003 (ip), vehicle: Klucel (hydroxypropylcellulose) (HPC)
[18] = dose: 50.0 mg/kg/injection, schedule: Q04DX002 (ip), vehicle: Klucel (hydroxypropylcellulose) (HPC)
[19] = dose: 100.0 mg/kg/injection, schedule: Q01DX001 (ip), vehicle: carboxymethylcellulose (CMC)
[20] = dose: 200.0 mg/kg/injection, schedule: Q01DX001 (ip), vehicle: carboxymethylcellulose (CMC)
[21] = dose: 400.0 mg/kg/injection, schedule: Q01DX001 (ip), vehicle: carboxymethylcellulose (CMC)
[22] = dose: 100.0 mg/kg/injection, schedule: Q04DX003 (ip), vehicle: saline with Tween-80
[23] = dose: 200.0 mg/kg/injection, schedule: Q04DX003 (ip), vehicle: saline with Tween-80
[24] = dose: 50.0 mg/kg/injection, schedule: Q01DX009 (ip), vehicle: saline with Tween-80

SMILES: COc1ccc(NC(=O)COc2ccc(C)cc2C)cc1
- T/C [1]: 95 % of control
- T/C [2]: 103 % of control
- T/C [3]: 89 % of control

SMILES: CCOC(=O)c1ccc(NC(=O)Nc2c(C)n(C)n(-c3ccccc3)c2=O)cc1
- T/C (dose: 100.0 mg/kg/injection, schedule: Q01DX001 (ip), vehicle: saline): 87 % of control
- T/C [4]: 89 % of control
- T/C [5]: 89 % of control
- T/C (dose: 200.0 mg/kg/injection, schedule: Q01DX001 (ip), vehicle: saline): 90 % of control
- T/C [6]: 86 % of control
- T/C [7]: 89 % of control
- T/C (dose: 400.0 mg/kg/injection, schedule: Q01DX001 (ip), vehicle: saline): 92 % of control
- T/C [8]: 90 % of control

SMILES: CC(=O)NC(CO)C(O)c1ccc([N+](=O)[O-])cc1 (stereo unspecified)
- T/C [9]: 101 % of control
- T/C [10]: 87 % of control
- T/C [11]: 87 % of control
- T/C [12]: 94 % of control
- T/C [13]: 97 % of control
- T/C [14]: 100 % of control

SMILES: CC(=O)Nc1c(I)cc(I)c(C(=O)O)c1I
- T/C (dose: 100.0 mg/kg/injection, schedule: Q04DX003 (ip), vehicle: saline sonified): 98 % of control
- T/C (dose: 200.0 mg/kg/injection, schedule: Q04DX003 (ip), vehicle: saline sonified): 101 % of control
- T/C (dose: 400.0 mg/kg/injection, schedule: Q04DX003 (ip), vehicle: saline sonified): 103 % of control

SMILES: CC[N+]1(C2CCCCC2)CCCCC1
- T/C (dose: 5.0 mg/kg/injection, schedule: Q01DX001 (ip), vehicle: saline): 101 % of control
- T/C (dose: 10.0 mg/kg/injection, schedule: Q01DX001 (ip), vehicle: saline): 103 % of control
- T/C (dose: 20.0 mg/kg/injection, schedule: Q01DX001 (ip), vehicle: saline): 100 % of control
- T/C (dose: 40.0 mg/kg/injection, schedule: Q01DX001 (ip), vehicle: saline): 91 % of control
- T/C (dose: 75.0 mg/kg/injection, schedule: Q01DX001 (ip), vehicle: saline): 96 % of control

SMILES: NC(Cc1ncc[nH]1)C(=O)O (stereo unspecified)
- T/C (dose: 100.0 mg/kg/injection, schedule: Q04DX002 (ip), vehicle: other): 104 % of control
- T/C (dose: 200.0 mg/kg/injection, schedule: Q04DX002 (ip), vehicle: other): 96 % of control
- T/C (dose: 400.0 mg/kg/injection, schedule: Q04DX002 (ip), vehicle: other): 119 % of control

SMILES: COC(=O)C(N)CSCc1ccccc1 (stereo unspecified)
- T/C [5]: 87 % of control
- T/C [7]: 89 % of control
- T/C [8]: 94 % of control

SMILES: COc1ccccc1C(=S)N1CCCCC1
- T/C [5]: 97 % of control
- T/C [7]: 89 % of control
- T/C [8]: 92 % of control

SMILES: CCOC(=O)C1C(=O)C(CN(CCCl)CCCl)C(=O)C(C(=O)OCC)C1c1ccc(O)cc1 (stereo unspecified)
- T/C [15]: 113 % of control
- T/C (dose: 100.0 mg/kg/injection, schedule: Q04DX003 (ip), vehicle: Klucel (hydroxypropylcellulose) (HPC)): 106 % of control
- T/C [16]: 112 % of control
- T/C [17]: 110 % of control
- T/C (dose: 400.0 mg/kg/injection, schedule: Q01DX009 (ip), vehicle: Klucel (hydroxypropylcellulose) (HPC)): 110 % of control
- T/C (dose: 400.0 mg/kg/injection, schedule: Q04DX003 (ip), vehicle: Klucel (hydroxypropylcellulose) (HPC)): 114 % of control

SMILES: CSc1ncnc2c1ncn2C1OC(CCC(N)=O)C(O)C1O (stereo unspecified)
- T/C [18]: 98 % of control
- T/C [1]: 101 % of control and 103 % of control
- T/C [2]: 95 % of control
- T/C [3]: 95 % of control

SMILES: COC(=O)C1OCOC2C(COS(=O)(=O)c3ccc(C)cc3)OCOC12 (stereo unspecified)
- T/C [18]: 100 % of control
- T/C [1]: 98 % of control and 111 % of control
- T/C [2]: 95 % of control and 101 % of control
- T/C [3]: 101 % of control

SMILES: CC(CS(=O)(=O)O)NC(CO)(CO)CO (stereo unspecified)
- T/C (dose: 100.0 mg/kg/injection, schedule: Q01DX009 (ip), vehicle: saline): 104 % of control
- T/C [5]: 100 % of control
- T/C (dose: 200.0 mg/kg/injection, schedule: Q01DX009 (ip), vehicle: saline): 98 % of control
- T/C [7]: 100 % of control
- T/C (dose: 400.0 mg/kg/injection, schedule: Q01DX009 (ip), vehicle: saline): 96 % of control
- T/C [8]: 100 % of control

SMILES: CCCCCCOC(=O)Nc1ccc(S(=O)(=O)CC)cc1
- T/C [19]: 100 % of control
- T/C [20]: 97 % of control
- T/C [21]: 97 % of control

SMILES: C/C(=C\Cl)CN(C)C
- T/C [22]: 97 % of control
- T/C [23]: 94 % of control

SMILES: CC1(C)CC(C)(c2ccccc2)c2ccccc21 (stereo unspecified)
- T/C (dose: 50.0 mg/kg/injection, schedule: Q01DX009 (ip), vehicle: Klucel (hydroxypropylcellulose) (HPC)): 101 % of control
- T/C (dose: 75.0 mg/kg/injection, schedule: Q04DX003 (ip), vehicle: Klucel (hydroxypropylcellulose) (HPC)): 104 % of control
- T/C [15]: 95 % of control
- T/C (dose: 150.0 mg/kg/injection, schedule: Q04DX003 (ip), vehicle: Klucel (hydroxypropylcellulose) (HPC)): 102 % of control
- T/C [16]: 95 % of control
- T/C (dose: 300.0 mg/kg/injection, schedule: Q04DX003 (ip), vehicle: Klucel (hydroxypropylcellulose) (HPC)): 102 % of control

SMILES: O=C(CC(O)(C(F)(F)F)C(F)(F)F)C(Cl)C(O)(C(F)(F)F)C(F)(F)F (stereo unspecified)
- T/C (dose: 25.0 mg/kg/injection, schedule: Q01DX001 (ip), vehicle: other): 104 % of control
- T/C (dose: 50.0 mg/kg/injection, schedule: Q01DX001 (ip), vehicle: other): 86 % of control

SMILES: O=C(NC(=S)Nc1ccc2c(c1)C(=O)c1ccccc1C2=O)c1cccc(Br)c1
- T/C [24]: 98 % of control
- T/C [9]: 96 % of control
- T/C [4]: 98 % of control and 92 % of control
- T/C [10]: 96 % of control and 97 % of control
- T/C [11]: 93 % of control
- T/C [6]: 97 % of control and 98 % of control
- T/C [12]: 94 % of control and 103 % of control
- T/C [13]: 103 % of control
- T/C [14]: 96 % of control and 97 % of control

SMILES: CCCCCCCCCCCCCCCC(CCCCCCCC)CCCCCCCC
- T/C (dose: 75.0 mg/kg/injection, schedule: Q01DX001 (ip), vehicle: saline with Tween-80): 97 % of control
- T/C (dose: 150.0 mg/kg/injection, schedule: Q01DX001 (ip), vehicle: saline with Tween-80): 110 % of control
- T/C (dose: 300.0 mg/kg/injection, schedule: Q01DX001 (ip), vehicle: saline with Tween-80): 95 % of control

SMILES: S=C(Nc1ccccn1)Nc1ccccn1
- T/C [24]: 96 % of control
- T/C (dose: 50.0 mg/kg/injection, schedule: Q04DX003 (ip), vehicle: Klucel (hydroxypropylcellulose) (HPC)): 94 % of control
- T/C (dose: 50.0 mg/kg/injection, schedule: Q04DX003 (ip), vehicle: saline with Tween-80): 96 % of control
- T/C [19]: 95 % of control
- T/C [4]: 103 % of control
- T/C [22]: 101 % of control
- T/C [20]: 95 % of control
- T/C [6]: 96 % of control
- T/C [17]: 87 % of control
- T/C [23]: 184 % of control
- T/C [21]: 92 % of control

SMILES: C=C1C(=O)OCC1(C(=O)OCC)C(=O)OCC
- T/C (dose: 5.0 mg/kg/injection, schedule: Q01DX009 (ip), vehicle: saline): 98 % of control
- T/C (dose: 10.0 mg/kg/injection, schedule: Q01DX009 (ip), vehicle: saline): 103 % of control
- T/C (dose: 20.0 mg/kg/injection, schedule: Q01DX009 (ip), vehicle: saline): 95 % of control

SMILES: OCCN1CCN(CCCN2c3ccccc3CCc3ccccc32)CC1
- T/C (dose: 12.5 mg/kg/injection, schedule: Q04DX003 (ip), vehicle: saline): 98 % of control
- T/C (dose: 15.62 mg/kg/injection, schedule: Q04DX003 (ip), vehicle: saline): 100 % of control
- T/C (dose: 25.0 mg/kg/injection, schedule: Q04DX003 (ip), vehicle: saline): 106 % of control
- T/C (dose: 31.25 mg/kg/injection, schedule: Q04DX003 (ip), vehicle: saline): 103 % of control
- T/C (dose: 50.0 mg/kg/injection, schedule: Q04DX003 (ip), vehicle: saline): 104 % of control
- T/C (dose: 62.5 mg/kg/injection, schedule: Q04DX003 (ip), vehicle: saline): 105 % of control
- T/C [5]: 104 % of control
- T/C (dose: 125.0 mg/kg/injection, schedule: Q04DX003 (ip), vehicle: saline): 92 % of control
